Assay results published in patent US6455562B1, “Cyclic AMP-specific phosphodiesterase inhibitors” (Icos Corporation, priority 1999, dated 2002).
Where two headings read alike, the source gives them in different places.

Key:
[1] = in vivo; cited from earlier work
recombinant human PDE4 [2] = tested on: T1, recombinant human PDE4; test: PDE4 inhibition, IC50 using recombinant human PDE4 (charcoal separation PDE assay); assay type: biochemical; conditions: read-out: IC50 value versus human recombinant PDE4
T1 construct: other: recombinant human PDE4
Method: The compounds of structural formula (II) were tested for an ability to inhibit PDE4. The ability of a compound to inhibit PDE4 activity is related to the IC50 value for the compound, i.e., the concentration of inhibitor required for 50% inhibition of enzyme activity. The IC50 value for compounds of structural formula (II) were determined using recombinant human PDE4. […]
Phosphodiesterase activity of the preparations was determined as follows. […] The [32P]5′-AMP or [32P]5′-GMP then was quantitatively converted to free [32P]phosphate and unlabeled adenosine or guanosine by the action of snake venom 5′-nucleotidase. […] PDE enzyme was present in quantities that yield <30% total hydrolysis of substrate (linear assay conditions). […] The reaction was stopped by addition of 200 μL of activated charcoal (25 mg/mL suspension in 0.1M NaH2PO4, pH 4) After centrifugation (750 X g for 3 minutes) to sediment the charcoal, a sample of the supernatant was taken for radioactivity determination in a scintillation counter and the PDE activity was calculated.

recombinant human PDE4 [3] = conditions: reported, prior art; read-out: reported 50% Inhibitory Concentration (IC50) with respect to inhibiting recombinant human PDE4; cited from earlier work

SMILES	IC50 (recombinant human PDE4 [3]) [nM]	also measured
COc1ccc([C@@H]2CNC(=O)C2)cc1OC1CCCC1 (single isomer, unassigned) [(−)-enantiomer of rolipram, R-rolipram]		emetic potential relative to the (+)-enantiomer (S-rolipram) [1]: about ten-fold more emetic
COc1ccc([C@@H]2CN(Cc3ccccc3)C[C@@]2(C)c2nn[nH]n2)cc1OC1CCCC1 [Example 1]		IC50 (recombinant human PDE4 [2]): 7900 nM
COc1ccc(C2CNC(=O)C2)cc1OC1CCCC1 (stereo not shown) [Rolipram]	~200	
COC(=O)N1CC(c2ccc(OC)c(OC3CCCC3)c2)C(C)(C(C)=O)C1 (stereo not shown) [formula (I)]	~2	
